From article PMC10997755, “Discovery of a small-molecule inhibitor that traps Polθ on DNA and synergizes with PARP inhibitors” (Nature Communications, 2024)
“And” between values parts separate entries of the source, which are not always exact repeats. Equal entries are not always repeated. “Also recorded” adds a separate entry of the source.

Assays:
[1] = system: DLD1 BRCA2 -/- cells; test: Clonogenic assay; format: cell-based; conditions: for Average number of colonies counted / Normalized (colonies): DLD1 BRCA2 NULL, 3 treatments were given; for average / percent suvival / replicate counts: DLD1-BRCA2 null cells
Outline: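 Cells seeded at low density (300–1000 per well, by plate size and genotype), medium changed every 2 days, colonies grown 10–12 days. Fixed in water:ethanol:acetic acid, stained with 0.5% crystal violet, then counted; IC50 from ≥3 independent experiments, mean ± SEM.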

[2] = biological target: T1, Polθ-pol (Homo sapiens, UniProt O75417); test: Cy5 fluorescence Polθ-pol DNA synthesis (strand displacement) IC50 assay; format: biochemical; conditions: Polθ-pol DNA synthesis, Cy5 fluorescence
T1 construct: purified recombinant human Polθ-pol (comprising amino acid residues 1792–2590); made in house
T1 sequence (O75417 1792-2590): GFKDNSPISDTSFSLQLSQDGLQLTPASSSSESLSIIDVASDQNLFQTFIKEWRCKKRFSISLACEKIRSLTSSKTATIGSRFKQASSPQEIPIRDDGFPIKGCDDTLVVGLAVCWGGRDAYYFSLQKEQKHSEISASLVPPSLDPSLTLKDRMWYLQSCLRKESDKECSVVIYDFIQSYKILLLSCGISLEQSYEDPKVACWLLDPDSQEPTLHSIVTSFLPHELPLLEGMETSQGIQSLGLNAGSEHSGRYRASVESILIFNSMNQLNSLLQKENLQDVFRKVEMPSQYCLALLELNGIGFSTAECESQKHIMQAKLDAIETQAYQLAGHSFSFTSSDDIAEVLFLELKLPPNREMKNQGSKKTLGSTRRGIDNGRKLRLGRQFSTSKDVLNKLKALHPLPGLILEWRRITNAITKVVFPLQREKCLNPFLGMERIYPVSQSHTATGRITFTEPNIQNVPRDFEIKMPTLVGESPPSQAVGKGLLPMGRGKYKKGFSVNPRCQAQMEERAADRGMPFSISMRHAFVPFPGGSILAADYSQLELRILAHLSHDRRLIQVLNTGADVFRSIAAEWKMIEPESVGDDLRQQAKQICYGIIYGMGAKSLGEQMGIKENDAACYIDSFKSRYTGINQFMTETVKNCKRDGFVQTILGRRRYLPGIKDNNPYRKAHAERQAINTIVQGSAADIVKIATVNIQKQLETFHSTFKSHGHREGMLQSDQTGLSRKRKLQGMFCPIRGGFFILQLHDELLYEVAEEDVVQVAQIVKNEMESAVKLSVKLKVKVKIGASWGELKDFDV
Outline: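 Recombinant human Polθ-pol (aa 1792–2590, 5 nM) extends 60 nM Cy5/quencher primer-template with 50 uM dNTPs in 25 mM Tris pH 7.8, 10 mM MgCl2, 2.5% DMSO at 37 °C. After 18 min, stopped with 20 mM EDTA; Cy5 fluorescence read, 7-point series in triplicate, inhibition from the mean.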

[3] = LogP; format: physicochemical; conditions: method not stated
[4] = system: DLD1 Parental cells; test: Clonogenic assay; format: cell-based; conditions: DLD1 PARENTAL, 3 treatments were given
Outline: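 Colony formation by BRCA-deficient, PALB2-mutant and wild-type cells (300–1000 cells/well) and MEFs (300 cells/well) over 10–12 days, medium changed every 2 days. Colonies fixed, stained with 0.5% crystal violet and counted; IC50 from 3 or more independent experiments.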

[5] = RTX-152 1.25 micro M + OLA 3.125 nano M
[6] = RTX-152 1.25 micro M + OLA 6.25 nano M
[7] = RTX-152 1.25 micro M + OLA 12.50 nano M
[8] = RTX-152 1.25 micro M + OLA 25.00 nano M
[9] = RTX-152 1.25 micro M + OLA 50.00 nano M
[10] = RTX-152 1.25 micro M + OLA 100.00 nano M
[11] = RTX-152 1.25 micro M, OLA 0.00 nano M
[12] = RTX-152 2.5 micro M + OLA 3.125 nano M
[13] = RTX-152 2.5 micro M + OLA 6.25 nano M
[14] = RTX-152 2.5 micro M + OLA 12.50 nano M
[15] = RTX-152 2.5 micro M + OLA 25.00 nano M
[16] = RTX-152 2.5 micro M + OLA 50.00 nano M
[17] = RTX-152 2.5 micro M + OLA 100.00 nano M
[18] = RTX-152 2.5 micro M, OLA 0.00 nano M
[19] = RTX-152 5 micro M + OLA 3.125 nano M
[20] = RTX-152 5 micro M + OLA 6.25 nano M
[21] = RTX-152 5 micro M + OLA 12.50 nano M
[22] = RTX-152 5 micro M + OLA 25.00 nano M
[23] = RTX-152 5 micro M + OLA 50.00 nano M
[24] = RTX-152 5 micro M + OLA 100.00 nano M
[25] = RTX-152 5 micro M, OLA 0.00 nano M

CN1CCN(c2cc(C(F)(F)F)cc(C(F)(F)F)c2OC(=O)N(C)c2ccc(F)cc2)C1=O [RTx-152]
Average number of colonies counted ([1]; 2.5 micro M): 47.3333
Normalized (colonies) ([1]; 2.5 micro M): 65.5172
Average number of colonies counted ([1]; 5 micro M): 40.3333
Normalized (colonies) ([1]; 5 micro M): 54.4828
Average number of colonies counted ([1]; 10 micro M): 22.6667
Normalized (colonies) ([1]; 10 micro M): 31.0345
Average number of colonies counted ([1]; 20 micro M): 15
Normalized (colonies) ([1]; 20 micro M): 20.6897
IC50 ([1]; Homo sapiens, DLD-1, read-out: IC50 clonogenic survival): ~6000 nM
average [1, 5]: 78.6667
percent suvival [1, 5]: 75.8842%
replicate counts [1, 5]: 75 and 82 and 79
average [1, 6]: 66.6667
percent suvival [1, 6]: 64.3087%
replicate counts [1, 6]: 67 and 70 and 63
average [1, 7]: 40
percent suvival [1, 7]: 38.5852%
replicate counts [1, 7]: 36 and 44 and 40
average [1, 8]: 32.6667
percent suvival [1, 8]: 31.5113%
replicate counts [1, 8]: 35 and 31 and 32
average [1, 9]: 20
percent suvival [1, 9]: 19.2926%
replicate counts [1, 9]: 22 and 20 and 18
average [1, 10]: 11
percent suvival [1, 10]: 10.6109%
replicate counts [1, 10]: 8 and 11 and 14
average [1, 11]: 95
percent suvival [1, 11]: 91.6399%
replicate counts [1, 11]: 91 and 96 and 98
average [1, 12]: 71
percent suvival [1, 12]: 68.4887%
replicate counts [1, 12]: 68 and 70 and 75
average [1, 13]: 51
percent suvival [1, 13]: 49.1961%
replicate counts [1, 13]: 54 and 47 and 52
average [1, 14]: 37.6667
percent suvival [1, 14]: 36.3344%
replicate counts [1, 14]: 35 and 40 and 38
average [1, 15]: 21.6667
percent suvival [1, 15]: 20.9003%
replicate counts [1, 15]: 26 and 20 and 19
average [1, 16]: 13
percent suvival [1, 16]: 12.5402%
replicate counts [1, 16]: 10 and 16 and 13
average [1, 17]: 3.667
percent suvival [1, 17]: 3.537%
replicate counts [1, 17]: 7 and 2 (2×)
average [1, 18]: 80
percent suvival [1, 18]: 77.1704%
replicate counts [1, 18]: 82 and 80 and 78
average [1, 19]: 45.3333
percent suvival [1, 19]: 43.7299%
replicate counts [1, 19]: 49 and 42 and 45
average [1, 20]: 38
percent suvival [1, 20]: 36.6559%
replicate counts [1, 20]: 38 and 32 and 44
average [1, 21]: 19.6667
percent suvival [1, 21]: 18.9711%
replicate counts [1, 21]: 19 and 22 and 18
average [1, 22]: 7.333
percent suvival [1, 22]: 7.074%
replicate counts [1, 22]: 10 and 8 and 4
average [1, 23]: 1.667
percent suvival [1, 23]: 1.608%
replicate counts [1, 23]: 3 and 1 (2×)
average [1, 24]: 1
percent suvival [1, 24]: 0.9646%
replicate counts [1, 24]: 1 and 0 and 2
average [1, 25]: 73
percent suvival [1, 25]: 70.418%
replicate counts [1, 25]: 70 and 78 and 71
potency in BRCA2-null cells compared with RTx-161 ([1]; clonogenic survival): moderately higher IC50
combination with Olaparib ([1]; clonogenic survival, Combenefit synergy): synergistic activity
selective killing / synthetic lethality in BRCA2-null DLD1 cells ([1]; colony survival, versus BRCA2-WT): selective killing; also recorded: induction of synthetic lethality
IC50 [2]: 6 nM and 6.2 nM and 4 to 6 nM
logP [3]: 4.2
Average number of colonies counted ([4]; 2.5 micro M): 115
Normalized (colonies) ([4]; 2.5 micro M): 97.4576
Normalized (colonies) ([4]; 5 micro M): 97.4576
Normalized (colonies) ([4]; 10 micro M): 95.7627
Average number of colonies counted ([4]; 20 micro M): 113
Normalized (colonies) ([4]; 20 micro M): 95.7627
